Earlier results as cited in US9970152B2, “Method for functionalizing a solid material surface with self assembling or self aggregating cyclodextrins and products thereof” (Aalborg Universitet, priority 2010, dated 2018).

Conditions: in water

Structure (SMILES): OC[C@H]1O[C@@H]2O[C@H]3[C@H](O)[C@@H](O)[C@@H](O[C@H]4[C@H](O)[C@@H](O)[C@@H](O[C@H]5[C@H](O)[C@@H](O)[C@@H](O[C@H]6[C@H](O)[C@@H](O)[C@@H](O[C@H]7[C@H](O)[C@@H](O)[C@@H](O[C@H]1[C@H](O)[C@H]2O)O[C@@H]7CO)O[C@@H]6CO)O[C@@H]5CO)O[C@@H]4CO)O[C@@H]3CO [α CD]
- Solubility: 129.5 g/kg H2O
